By IC50 is commonly meant the concentration that inhibits the measured activity by half. The term melting point denotes the temperature of the solid-liquid transition.

Where “and” joins values, the source holds several entries; their conditions need not be identical. Identical values can stand only once. Like-named read-outs stand apart in the source and are kept apart here.

Results on 17 compounds are retold here after publication PMC6017342, “Discovery of Oxime Ethers as Hepatitis B Virus (HBV) Inhibitors by Docking, Screening and In Vitro Investigation” (Molecules : A Journal of Synthetic Chemistry and Natural …, 2018).

Data set [1] concerns secretion of HBsAg in HepG2.2.15 cells. As to the kind of experiment: microbe, parasite or virus in culture. The data set is classed as cell-based, Hepatitis B virus. The following applies: for IC50 / HBsAg IC50: - = inhibition ratio less than 50% in the test concentration range. The text has this: (§1) The anti-HBV activities of the compounds were expressed as the concentration of compound that achieved 50% inhibition (IC50) to the secretion of HBsAg and HBeAg. […] The cytotoxicity of compounds was expressed as the concentration of compound required to kill 50% (TC50) of the HepG2.2.15 cells.
(§2) HepG2.2.15 (clonal cells derived from human hepatoma cell line G2) cells were provided by the Chinese Academy of Medical Sciences (P.R. China) and maintained in minimal essential medium (MEM) supplemented with 10% fetal bovine serum and 380 μg/mL of G418, 50 ug/mL of kanamycin, and 0.03% L-glutamine at 37 °C in a 5% CO2 atmosphere with 100% humidity.
(§3) HepG2.2.15 cells were seeded at a density of 1 × 10^5 cells/ml ([…]) in 96-well plates and maintained at 37 °C for 24 h prior to extract addition, followed by treatment with various concentrations of drugs. […] Cells were treated with drug-containing fresh medium every 3 d for up to 9 d in a time-dependent experiment. Medium was taken at the 9th day of the treatment and stored at −20 °C until analysis. The IC50 and selected index (SI) of each compound were calculated, respectively.
(§4) The levels of HBV surface antigen (HBsAg) and HBV e antigen (HBeAg) in the supernatant of the HepG2.2.15 cell were simultaneously detected using enzyme-linked immunosorbent assay (ELISA) kits (Rongsheng Biotechnology Co. Ltd., Shanghai, China) according to the manufacturer’s instructions.The synthesized derivatives were expressed as the concentration of compound that achieved 50% inhibition (IC50) to the secretion of HBsAg and HBeAg. The selectivity index (SI) was determined as the ratio of CC50 to IC50, which is a major pharmaceutical parameter of estimates possible for future clinical application.

In data set [2] the test system is HepG2.2.15 cells. The data set is described as follows: Cytotoxicity on HepG2.2.15 cells (MTT assay, 9 days). The following applies: HepG 2.2.15 cell. It counts as cell-based, human. The procedure: as §2
HepG2.2.15 cells were seeded at a density of 1 × 10^5 cells/ml ([…]) in 96-well plates and maintained at 37 °C for 24 h prior to extract addition, followed by treatment with various concentrations of drugs. Lamivudine (3TC) was served as the positive control. Cells were treated with drug-containing fresh medium every 3 d for up to 9 d in a time-dependent experiment. Medium was taken at the 9th day of the treatment and stored at −20 °C until analysis. The IC50 and selected index (SI) of each compound were calculated, respectively.
Logarithmically growing cells were seeded in 96-well culture plates at a density of 1 × 10^5 cells/mL ([…]). They were cultured for 24 h and then treated with various concentrations of drugs. Optical density (OD) values were read at 450 nm after 9 days and the percentage of cell death was calculated; the cells were treated with drug-containing fresh medium every 3 d for up to 9 d. After drug treatment, the cytotoxicity was measured using the MTT assay.

Data set [3] relates to secretion of HBeAg in HepG2.2.15 cells. As to the kind of experiment: Inhibition of HBeAg secretion in HepG2.2.15 cells (ELISA). The data set is classed as cell-based, Hepatitis B virus. The following applies: 9 days.
Description: as §1, §2, §3, §4

Where [4] appears, read: Hepatitis B virus, HepG2.2.15, 216 h, read-out: HBsAg IC50, HepG2.2.15 cells, 9 days, ELISA.
The mark [5] stands for this setting: Hepatitis B virus, HepG2.2.15, 216 h, ELISA, - = inhibition ratio less than 50% in the test concentration range.
Setting [6] is: HepG2.2.15 cells, 9 days, ELISA.
The mark [7] stands for this setting: ELISA, - = inhibition ratio less than 50% in the test concentration range.
Setting [8] is: HepG2.2.15 cells, 9 days, ELISA, read-out: HBsAg IC50.

Take `Nc1ccn([C@@H]2CS[C@H](CO)O2)c(=O)n1` [Compound 3TC, Lamivudine, reference compound]: the IC50 in data set [1] (setting [4]) is 291 µM. For the same compound, the “TC50 (50% cytotoxicity concentration)” value in data set [2] is 517.40 µM.
Turning to `CCOC(=O)CC/C(=N\OC)C(=O)c1ccc(C)cc1` [Compound 3a-1, Ethyl (E)-4-(4-methylbenzoyl)-4-[(methoxy)imino]butanoate], the concentration for half-maximal inhibition (IC50) in data set [3] (setting [5]) was more than 359 µM; in data set [1] (setting [4]) it was 293 µM. In addition, in data set [1] (HepG2.2.15 cells, 9 days), the “HBsAg SI (selectivity index = TC50/IC50)” value was more than 5.12. Also, the “TC50 (50% cytotoxicity concentration)” value in data set [2] is more than 1500 µM.
As for `CCOC(=O)CC/C(=N\OC)c1ccc(OC)cc1` [Compound 3b-1, Ethyl (E)-4-(4-methoxyphenyl)-4-[(methoxy)imino]butanoate], the IC50 in data set [3] (setting [5]) is more than 359 µM; in data set [1] (setting [4]), more than 293 µM. The “HBsAg IC50” value in data set [1] (setting [6]) was “inhibitory activity could be neglected”. Further, in data set [2], the “TC50 (50% cytotoxicity concentration)” value was found to be 1383.74 µM.
With `CCOC(=O)CC/C(=N\OC)c1ccc(Cl)cc1` [Compound 3c-1, Ethyl (E)-4-(4-chlorophenyl)-4-[(methoxy)imino]butanoate], the IC50 was more than 359 µM in data set [3] (setting [5]) and 225 µM in data set [1] (setting [4]). Also, in data set [1] (HepG2.2.15 cells, 9 days), the “HBsAg SI (selectivity index = TC50/IC50)” value was found to be 2.00. In addition, in data set [2], the “TC50 (50% cytotoxicity concentration)” value stood at 450.67 µM.
`CO/N=C(\CCC(=O)OCc1ccco1)c1ccc(OC)cc1` [Compound 4b-1, Furan-2-ylmethyl (E)-4-(4-methoxyphenyl)-4-[(methoxy)imino]butanoate]: the IC50 in data set [3] (setting [5]) is more than 359 µM; in data set [1] (setting [4]) it was 128 µM. Besides, in data set [1] (HepG2.2.15 cells, 9 days), the “HBsAg SI (selectivity index = TC50/IC50)” value is listed as 2.72. The “TC50 (50% cytotoxicity concentration)” value in data set [2] was found to be 347.55 µM.
With `COc1ccc(/C(CCC(=O)OCc2ccco2)=N/OCc2ccccc2)cc1` [Compound 4b-2, Furan-2-ylmethyl (E)-4-(4-methoxyphenyl)-4-[(benzyloxy)imino]butanoate], the IC50 in data set [3] (setting [5]) is more than 359 µM; in data set [1] (setting [4]), 234 µM. Further, the “HBsAg SI (selectivity index = TC50/IC50)” value in data set [1] (HepG2.2.15 cells, 9 days) was 4.94. Besides, the “TC50 (50% cytotoxicity concentration)” value in data set [2] was determined as 1153.49 µM.
Take `CO/N=C(\CCC(=O)OCc1ccco1)c1ccc(Cl)cc1` [Compound 4c-1, Furan-2-ylmethyl (E)-4-(4-chlorophenyl)-4-[(methoxy)imino]butanoate]: the figures for the 50% inhibitory concentration (IC50) in data set [3] (setting [5]) and in data set [1] (setting [4]) were more than 359 µM and more than 293 µM, respectively. Moreover, the “HBsAg IC50” value in data set [1] (setting [6]) is on record as “non”. Besides, the “TC50 (50% cytotoxicity concentration)” value in data set [2] is more than 1500 µM.
Regarding `CO/N=C(\CCC(=O)Nc1ccccc1)c1ccc(OC)cc1` [Compound 5b-1, (E)-4-(4-Methoxyphenyl)-4-[(methoxy)imino]-N-phenylbutanamide], the IC50 in data set [3] (setting [5]) is more than 359 µM; in data set [1] (setting [4]), 208 µM. Further, in data set [1] (HepG2.2.15 cells, 9 days), the “HBsAg SI (selectivity index = TC50/IC50)” value is given as 2.28. Besides, the “TC50 (50% cytotoxicity concentration)” value in data set [2] turned out to be 473.25 µM.
For the compound `CO/N=C(\CCC(=O)Nc1ccccc1)c1ccc(Cl)cc1` [Compound 5c-1, (E)-4-(4-Chlorophenyl)-4-[(methoxy)imino]-N-phenylbutanamide], the “HBeAg SI (selectivity index = TC50/IC50)” value in data set [3] came to 4.63. Further, the “HBeAg IC50” value in data set [3] (setting [7]) is “non”. For the same compound, the IC50 in data set [3] (setting [5]) was 246 µM. Also, the “HBsAg SI (selectivity index = TC50/IC50)” value in data set [1] (HepG2.2.15 cells, 9 days) is 28.51. The “TC50 (50% cytotoxicity concentration)” value in data set [2] is 1138.45 µM and >1500 µM.
In turn, `O=C(CC/C(=N\OCc1ccccc1)c1ccc(Cl)cc1)Nc1ccccc1` [Compound 5c-2, (E)-4-(4-Chlorophenyl)-4-[(benzyloxy)imino]-N-phenylbutanamide] returned a melting point of 116 to 117.9 °C.
In the case of “(E)-4-(4-Methoxyphenyl)-4-[(benzyloxy)imino]-N-phenylbutanamide [Compound 5b-2]”, the “HBeAg SI (selectivity index = TC50/IC50)” value in data set [3] is given as more than 7.83. Besides, the IC50 in data set [3] (setting [7]) is 192 µM; in data set [1] (setting [8]), 101 µM. Besides, in data set [1] (HepG2.2.15 cells, 9 days), the “HBsAg SI (selectivity index = TC50/IC50)” value is on record as more than 14.82. Further, the “TC50 (50% cytotoxicity concentration)” value in data set [2] was more than 1500 µM.
The corresponding values for “(E)-4-(4-Methylbenzoyl)-4-[(methoxy)imino]-N-phenylbutanamide [Compound 5a-1]” are more than 5.48, 274 µM, 74.9 µM, more than 20.02 and more than 1500 µM.
The corresponding values for “Ethyl (E)-4-(4-chlorophenyl)-4-[(benzyloxy)imino]butanoate [Compound 3c-2]” are 1.34, 93.9 µM, 94.7 µM, 1.34 and 127.10 µM.
Take “Ethyl (E)-4-(4-methoxyphenyl)-4-[(benzyloxy)imino]butanoate [Compound 3b-2]”: the half-maximal inhibitory concentration (IC50) in data set [3] (setting [7]) was more than 359 µM; in data set [1] (setting [8]), 86.9 µM. Besides, the “HBsAg SI (selectivity index = TC50/IC50)” value in data set [1] (HepG2.2.15 cells, 9 days) worked out at 4.95. Further, in data set [2], the “TC50 (50% cytotoxicity concentration)” value was determined as 429.88 µM.
With “Ethyl (E)-4-(4-methylbenzoyl)-4-[(benzyloxy)imino]butanoate [Compound 3a-2]”, the IC50 was more than 359 µM in data set [3] (setting [7]) and more than 293 µM in data set [1] (setting [8]). Also, in data set [1] (setting [6]), the “HBsAg IC50” value is recorded as “non”. The “TC50 (50% cytotoxicity concentration)” value in data set [2] is more than 1500 µM.
For “Furan-2-ylmethyl (E)-4-(4-chlorophenyl)-4-[(benzyloxy)imino]butanoate [Compound 4c-2]”, the concentration for half-maximal inhibition (IC50) in data set [3] (setting [7]) was more than 359 µM; in data set [1] (setting [8]) it was more than 293 µM. Also, the “TC50 (50% cytotoxicity concentration)” value in data set [2] is more than 1500 µM.
As for “Furan-2-ylmethyl (E)-4-(4-methylbenzoyl)-4-[(benzyloxy)imino]butanoate [Compound 4a-2]”, the IC50 in data set [3] (setting [7]) was more than 359 µM; in data set [1] (setting [8]), more than 293 µM. The “HBsAg IC50” value in data set [1] (setting [6]) is listed as “non”. Also, the “TC50 (50% cytotoxicity concentration)” value in data set [2] is more than 1500 µM.
